Measurements reported in patent US10774076B2, “Benzazole compounds and methods for making and using the compounds” (Rigel Pharmaceuticals, Inc., priority 2015, dated 2020).
pEC50: −log10 of the molar value.

Key:
IL23p19 = assay: LPS Induced IL23p19 in THP-1 Cells (with IFNγ Primed) Assay; format: cell-based; details: Homo sapiens, IFNγ primed (50 ng/mL), LPS 1 ug/mL, 18 hours, 10 pt, read-out: IL23-p19 ELISA, THP1-IFNy, LPS, 10 pt EC50
In short: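 IFNγ-primed (50 ng/mL, ~18 h) THP-1 cells in RPMI/10% FBS pre-incubated 1 h with serially diluted compound, then stimulated 18 h at 37 °C with 1 ug/mL LPS. Supernatant IL-23p19 quantified by chemiluminescent sandwich ELISA (anti-IL-12 p40/p70 detection); EC50 from curve fit. Toxicity checked by Cell Titer Glo.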

IL23-p19 = assay: Compound screening using DC cells: LPS-induced IL-23 (p19/p40) ELISA in IFNγ-primed dendritic cells differentiated from human PBMC; format: cell-based; details: Dendritic cell, human PBMC-derived dendritic cells, LPS 1 μg/ml, 18 hours, 10 pt
In short: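 Dendritic cells were derived from human PBMC over 7 days with GMCSF (100 ng/ml) and IL4 (20 ng/ml), then primed 24 h with 50 ng/ml IFNγ. After 1 h pre-incubation with compound, cells were stimulated with LPS (1 μg/ml final) for 18 h at 37 °C. IL-23 in supernatant measured by p19-capture/p40-detection chemiluminescent ELISA; cytotoxicity checked by CellTiter-Glo.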

Row | pEC50 (IL23p19) | pEC50 (IL23-p19) | Compound
1 | 7.67 | 7.24 | O=C(Nc1cc2oc(N3CCOCC3)nc2cc1N1CCCC1)c1csc(-c2cn[nH]c2)n1 [Compound I-47, N-(2-morpholino-5-(pyrrolidin-1-yl)benzo[d]oxazol-6-yl)-2-(1H-pyrazol-4-yl)thiazole-4-carboxamide]
2 | 7.50 | 7.85 | O=C(Nc1cc2oc(N3CCOCC3)nc2cc1N1CCCC(F)C1)c1ccc(-c2cn[nH]c2)o1 (centres unmarked) [Compound I-38, N-(5-(3-fluoropiperidin-1-yl)-2-morpholinobenzo[d]oxazol-6-yl)-5-(1H-pyrazol-4-yl)furan-2-carboxamide]
3 | 6.45 | 5.09 | Cc1cc(-c2ccc(C(=O)Nc3cc4oc(N5CCOCC5)nc4cc3N3CCCC(F)C3)o2)ccn1 (centres unmarked) [Compound I-39, N-(5-(3-fluoropiperidin-1-yl)-2-morpholinobenzo[d]oxazol-6-yl)-5-(2-methylpyridin-4-yl)furan-2-carboxamide]
4 | 4.28 | 6.05 | Cc1cc(-c2ccc(C(=O)Nc3cc4sc(N5CCOCC5)nc4cc3N3CCCCC3)o2)ccn1 [Compound I-9, 5-(2-methylpyridin-4-yl)-N-(2-morpholino-5-(piperidin-1-yl)benzo[d]thiazol-6-yl)furan-2-carboxamide]
